PMC12631873 (Advanced Science, 2025)
Square brackets hold non-standard residues; d marks the D form. Peptide text beside a SMILES is read from it. * marks the point of attachment. X1 = CN1/C(=C/C=C/C=C/C2=[N+](CCCCCC(=O)*)c3ccc(S(=O)(=O)[O-])cc3C2(C)C)C(C)(C)c2cc(S(=O)(=O)O)ccc21; Hyp = O=C(O)[C@@H]1C[C@@H](O)CN1; Nlys = NCCCCNCC(=O)O; Ahx = NCCCCCC(=O)O

What was measured:
[1] = In vitro cartilage uptake (absorption); settings: after 30 min; 10 mg porcine cartilage slice, 10 µM in 200 µL 1× PBS, room temperature, fluorescence, n = 6
Procedure: Porcine cartilage was freshly harvested from the articular cartilage of an adult pig's knee joint obtained from a local slaughterhouse. Porcine cartilage plugs (diameter: 6 mm) were excised using an osteotomy drill with constant rinsing with PBS buffer for cooling. All solutions in the experiments with unfixed porcine cartilage samples (e.g., Figure 2d–f; Figures S5 and S6, Supporting Information) contained 100 U mL^−1 penicillin and 0.1 mg mL^−1 streptomycin (Solarbio, P1400) to prevent bacterial growth.
The porcine cartilage plugs were carefully cut into small cuboids with a uniform size (≈5 × 1 × 2 mm, ≈10 mg by wet weight). […] Each incubation bath was aliquoted so its fluorescence FN1 of the incubation bath was measured without the cartilage samples using a microplate reader (PerkinElmer EnVision; excitation: 646 nm, emission: 662 nm) at specified time points (N1 = 0.5, 1, 2, 4, 6, 8, 10, 12, and 24 h) to estimate the absorption of the probes (Figure 2d; Figure S5, Supporting Information), while fluorescence levels of the compound solutions pre‐measured before incubation were recorded as Fpre. The unabsorbed percent was calculated as FN1/Fpre×100%, and the final fluorescence measurement after 24 h of absorption was recorded as F24h. […]

cartilage = assay: In vivo and ex vivo fluorescence imaging of cartilage uptake and retention in nude mice; design: species or system mouse
Text: All procedures for mouse maintenance and experiments strictly followed the policy of the Experimental Animal Ethics Committee of the Fifth Affiliated Hospital of Sun Yat‐sen University (protocol numbers: 00361, 00436). Balb/c nu mice (male, 10‐18 weeks old) were used for the general in vivo imaging experiments (Figure 3c–f; Figures S10–S14, Supporting Information). For Figure 3g,h and Figure S16 (Supporting Information), neonatal Balb/c mice (7 days old) were used. Female Balb/c mice (74 weeks old versus 12 weeks old) were used in the aged joint imaging experiment reported in Figure 4a–c and Figure S17 (Supporting Information). The RA model was made using female Balb/c mice (6‐8 weeks old) by intraperitoneal injection of an anti‐collagen antibody cocktail (1.5 mg per mouse; Chondrex, 53100) followed by selective subcutaneous injection of lipopolysaccharide (LPS, 12.5 µg per mouse, Chondrex, 53100) into the left hind paw three days later.^[ [30] ^] C57BL/6J mice (male, 6–8 weeks old) were used for the biocompatibility tests (Figures S23–S25, Supporting Information).
(§1) Typically, the fluorescence peptides or peptoids were prepared at a dose of 1 nmol (10 µM in 100 µL of 1× PBS buffer) and injected into the tail vein of each mouse 2 h prior to fluorescence imaging with an IVIS Spectrum imager (PerkinElmer Lumina III). For Figure 4, Figures S17 and S18 (Supporting Information) (joint aging and RA) and Figure S27 (Supporting Information), 2 nmol of Cy5‐(NlysO)7 (20 µM in 100 µL of 1× PBS buffer) were i.v. administered to each mouse. For 1‐week‐old neonatal mice, 1 nmol of Cy5‐(NlysO)7 (20 µM in 50 µL of 1× PBS buffer) was intravenously injected into each mouse. All in vivo imaging was performed 2 h post probe injection with the IVIS Spectrum imager (PerkinElmer, fluorescence: ex/em: 620/670 nm, exposure: 1 s, bing: 4, F/Stop: 2; field of view: A/B/C/Z). Mice were anesthesia with 3% isoflurane (RWD, R510‐22‐10) during image acquisition. Hair in the knee areas was removed before fluorescence imaging for mice in Figure 4a and Figure S17 (Supporting Information). The mice were euthanized following the final image acquisition and occasionally imaged again after skin and organ removal. Next, the airways, ankles, ears, paws, knees, tails, spines, and chest ribs were collected, imaged, and saved for subsequent histology analysis. All acquired fluorescence images were analyzed using the Living Image software (PerkinElmer). The fluorescence signal from each specimen was measured by quantifying the average radiation efficiency within the selected oval‐shaped regions‐of‐interest.
For the cartilage retention experiments (Figures S11 and S12, Supporting Information), Cy5‐(NlysO)7 (10 µM in 100 µL of 1× PBS buffer) was administered via tail vein to four male Balb/c nu mice (10 weeks old) at 2, 24, 48, and 96 h respectively, prior to fluorescence imaging using an IVIS Spectrum imaging system (ex/em: 620/670 nm, exposure: 1 s, bing: 4, F/Stop: 2). Following euthanasia, their cartilaginous tissues were harvested and imaged. The fluorescence images were analyzed and quantified as described above.

[2] = Organ fluorescence 2 h post-injection (clearance route); type: in vivo, mouse; settings: nude mice, organs isolated 2 h post i.v. injection of 1 nmol
Procedure: as §1

vitreous bodies and skin = assay: In vivo uptake in vitreous bodies and skin; settings: mouse, 2 h post i.v. injection of 2 nmol
Procedure: as §1, with “Next, the airways, ankles, ears, paws, knees, tails, spines, and chest ribs were collected, imaged, and saved for subsequent histology analysis.” left out

[3] = Blood biochemical analysis; type: in vivo, mouse; settings: C57BL/6J mice, 24 h post i.v. injection of 2 nmol, n = 5
Procedure: Blood biochemical analysis: Each C57BL/6J mouse (6–8 weeks old) was intravenously injected with 100 µL of PBS or Cy5‐(NlysO)7 (2 nmol in 100 µL 1× PBS buffer per mouse) 24 h prior to blood collection for the biochemical analysis. Biochemical analysis of the blood was performed by Wuhan Servicebio.

[4] = Routine (whole) blood tests after repeated dosing; type: in vivo, mouse; settings: C57BL/6J mice, 3 weekly i.v. doses of 2 nmol over 14 days, n = 5
Procedure: Whole blood tests: Each C57BL/6J mouse (6–8 weeks old) was intravenously injected with 100 µL of PBS buffer or with each peptide or peptoid probe (2 nmol in 100 µL 1× PBS buffer per mouse) on days 0, 7, and 14. The mice were sacrificed on day 15, 24 h after the final injection. The heart, liver, spleen, lungs, and kidneys were collected from each mouse and processed into formalin‐fixed paraffin‐embedded sections for histological evaluation with H&E staining. Whole blood was collected. Both H&E and blood sample analyses were performed by Wuhan Servicebio.

| SMILES | unabsorbed percent of starting concentration remaining in solution [1] | time post-injection that in vivo signals in knee joints and thoracic costal cartilage remained detectable (cartilage; 1 nmol tail-vein injection, monitored over 96 h) | in vivo retention in joints and ribs compared to peptide sequences Cy5-(GKO)7 and Cy5-R8 (cartilage; 1 nmol i.v., 0-96 h) | fluorescence in cartilage-rich tissues (knee joints, ribs) 2-96 h post-injection (cartilage; 1 nmol i.v., imaged at 2, 24, 48, 96 h) | clearance route from organ fluorescence [2] | in vivo fluorescence uptake in vitreous bodies and skin compared to cartilage (vitreous bodies and skin) | blood biochemical analytes (ALT, AST, TBIL, UREA, BUN, CREA) vs PBS group [3] | routine blood analyses vs PBS control group [4] |
| --- | --- | --- | --- | --- | --- | --- | --- | --- |
| CN1/C(=C/C=C/C=C/C2=[N+](CCCCCC(=O)NCCCCCC(=O)N[C@@H](CCCNC(=N)N)C(=O)N[C@@H](CCCNC(=N)N)C(=O)N[C@@H](CCCNC(=N)N)C(=O)N[C@@H](CCCNC(=N)N)C(=O)N[C@@H](CCCNC(=N)N)C(=O)N[C@@H](CCCNC(=N)N)C(=O)N[C@@H](CCCNC(=N)N)C(=O)N[C@@H](CCCNC(=N)N)C(N)=O)c3ccc(S(=O)(=O)[O-])cc3C2(C)C)C(C)(C)c2cc(S(=O)(=O)O)ccc21 [Cy5‐R8, reference compound] | ≈ 20% | difficult to find after 2 h post‐injection |  |  |  |  |  |  |
| CN1/C(=C/C=C/C=C/C2=[N+](CCCCCC(=O)NCCCCCC(=O)N(CCCCN)CC(=O)N3C[C@H](O)C[C@H]3C(=O)N(CCCCN)CC(=O)N3C[C@H](O)C[C@H]3C(=O)N(CCCCN)CC(=O)N3C[C@H](O)C[C@H]3C(=O)N(CCCCN)CC(=O)N3C[C@H](O)C[C@H]3C(=O)N(CCCCN)CC(=O)N3C[C@H](O)C[C@H]3C(=O)N(CCCCN)CC(=O)N3C[C@H](O)C[C@H]3C(=O)N(CCCCN)CC(=O)N3C[C@H](O)C[C@H]3C(N)=O)c3ccc(S(=O)(=O)[O-])cc3C2(C)C)C(C)(C)c2cc(S(=O)(=O)O)ccc21 [Cy5‐(NlysO)7] ({X1-Ahx}-[Nlys][Hyp][Nlys][Hyp][Nlys][Hyp][Nlys][Hyp][Nlys][Hyp][Nlys][Hyp][Nlys][Hyp]-NH2) |  |  | stronger retention in the joints and ribs in vivo | at 48 h but not 96 h | might be mainly cleared through kidneys | virtually no in vivo fluorescence uptake | no key analytes from the Cy5‐(NlysO)7 group significantly differed | None of the measurements |
